# Legend:
# [1] = biological target: T1, CFTR in F508del/F508del primary CF hBE cells (Homo sapiens, UniProt P13569, DEL508-508); assay: Ussing chamber electrophysiology assay of CFTR potentiation in F508del/F508del CF bronchial epithelial cells (27° C.); type: cell-based
# T1 construct: Primary cystic fibrosis human bronchial epithelial (CF hBE) cells were expanded and cultured; endogenous in cells; host or cells: primary CF human bronchial epithelial cells, genotype F508del/F508del
# Method in brief: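 Well-differentiated primary CF hBE cells (>30 days air/liquid interface) in Ussing chambers, HEPES saline both sides, voltage clamped to zero. Amiloride 30 uM, forskolin 10 uM, four rising compound concentrations, then CFTRinh-172 20 uM added at 20-25 min intervals. Short-circuit current scaled to DMSO (0%) and a positive control potentiator maximum (100%).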
# [2] = biological target: T2, recombinant F508del V470 CFTR in Fischer rat thyroid (FRT) cells (Homo sapiens, UniProt P13569, DEL508-508); assay: FRT ion flux assay of F508del CFTR potentiation; type: cell-based; settings: FRT cells expressing F508del V470 CFTR, forskolin 20 uM, 27° C. pre-incubation
# T2 construct: expressed in transfected cells
# T2 sequence (P13569 with tags, fused parts or gaps DEL508-508): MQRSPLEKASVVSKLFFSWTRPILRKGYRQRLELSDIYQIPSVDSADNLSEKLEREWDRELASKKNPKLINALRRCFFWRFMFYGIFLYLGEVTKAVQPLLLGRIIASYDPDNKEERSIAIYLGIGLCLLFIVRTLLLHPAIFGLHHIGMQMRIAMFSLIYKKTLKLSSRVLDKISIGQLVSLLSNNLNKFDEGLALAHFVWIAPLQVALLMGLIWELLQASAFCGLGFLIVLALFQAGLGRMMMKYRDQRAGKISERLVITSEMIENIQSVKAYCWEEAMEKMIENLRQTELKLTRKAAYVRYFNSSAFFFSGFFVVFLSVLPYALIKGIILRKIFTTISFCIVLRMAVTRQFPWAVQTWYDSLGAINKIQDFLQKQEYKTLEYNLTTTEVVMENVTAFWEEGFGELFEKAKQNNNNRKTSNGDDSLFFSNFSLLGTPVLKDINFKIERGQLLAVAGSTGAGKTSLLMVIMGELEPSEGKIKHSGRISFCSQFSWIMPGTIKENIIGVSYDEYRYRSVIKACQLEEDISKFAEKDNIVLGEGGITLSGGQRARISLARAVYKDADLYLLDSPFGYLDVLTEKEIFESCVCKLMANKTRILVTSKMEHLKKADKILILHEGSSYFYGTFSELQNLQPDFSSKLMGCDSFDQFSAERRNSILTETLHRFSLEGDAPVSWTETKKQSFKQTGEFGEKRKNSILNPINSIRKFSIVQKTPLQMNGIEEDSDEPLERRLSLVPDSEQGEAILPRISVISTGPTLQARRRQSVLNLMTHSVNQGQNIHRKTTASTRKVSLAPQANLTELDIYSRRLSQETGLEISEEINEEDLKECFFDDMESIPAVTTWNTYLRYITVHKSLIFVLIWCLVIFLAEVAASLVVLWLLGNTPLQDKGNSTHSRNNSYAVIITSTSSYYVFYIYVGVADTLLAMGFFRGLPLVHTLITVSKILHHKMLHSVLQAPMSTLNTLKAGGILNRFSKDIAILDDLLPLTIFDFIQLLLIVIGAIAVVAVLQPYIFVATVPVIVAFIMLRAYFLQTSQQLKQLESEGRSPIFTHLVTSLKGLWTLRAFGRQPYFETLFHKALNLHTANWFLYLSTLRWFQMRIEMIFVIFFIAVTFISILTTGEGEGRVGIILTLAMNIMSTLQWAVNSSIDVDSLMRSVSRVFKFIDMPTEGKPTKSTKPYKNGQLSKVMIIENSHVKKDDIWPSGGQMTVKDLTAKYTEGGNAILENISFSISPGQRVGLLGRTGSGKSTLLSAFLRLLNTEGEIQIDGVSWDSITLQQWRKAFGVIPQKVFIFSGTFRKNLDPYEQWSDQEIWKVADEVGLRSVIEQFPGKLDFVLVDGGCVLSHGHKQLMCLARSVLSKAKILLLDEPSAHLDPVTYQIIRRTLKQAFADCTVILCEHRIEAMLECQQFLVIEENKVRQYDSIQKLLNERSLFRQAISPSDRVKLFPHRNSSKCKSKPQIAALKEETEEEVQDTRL
# Method in brief: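 FRT cells co-expressing F508del V470 CFTR and halide-sensitive YFP, temperature-corrected at 27° C for 16-24 h, then treated 30 min with compound plus 20 uM forskolin. Iodide addition quenches YFP, read after ~21 s; ratio scaled to DMSO (0%) and positive control potentiator (100%).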
# T1 sequence (P13569 with tags, fused parts or gaps DEL508-508): as above
EC50 [1] [nM],EC50 [2] [nM],SMILES
9.17,38.6,"CCC(c1cn(-c2ccc(F)c(F)c2)nn1)n1cc(-c2cc(F)cnc2OC)c2c(N)ncnc21 (single isomer, unassigned; enantiomer 1) [Example 155, 7-{1-[1-(3,4-Difluorophenyl)-1H-1,2,3-triazol-4-yl]propyl}-5-(5-fluoro-2-methoxypyridin-3-yl)-7H-pyrrolo[2,3-d]pyrimidin-4-amine, enantiomer 1]"
87,129,"Nc1ncnc2c1c(C1CC1)cn2Cc1cnn(-c2ccccc2F)c1 [Example 317, 5-Cyclopropyl-7-{[1-(2-fluorophenyl)-1H-pyrazol-4-yl]methyl}-7H-pyrrolo[2,3-d]pyrimidin-4-amine]"
133,277,"CCC(c1cn(-c2ccccc2F)nn1)n1cc(-c2ccc(OC(F)F)nc2)c2c(N)ncnc21 (single isomer, unassigned; enantiomer 1) [Example 141, (−) 5-[6-(Difluoromethoxy)pyridin-3-yl]-7-{1-[1-(2-fluorophenyl)-1H-1,2,3-triazol-4-yl]propyl}-7H-pyrrolo[2,3-d]pyrimidin-4-amine, enantiomer 1]"
19.5,112,"CCC(c1cn(-c2ccc(F)c(F)c2)nn1)n1cc(-c2cnc(OC)c(F)c2)c2c(N)ncnc21 (single isomer, unassigned; enantiomer 2) [Example 158, 7-{1-[1-(3,4-Difluorophenyl)-1H-1,2,3-triazol-4-yl]propyl}-5-(5-fluoro-6-methoxypyridin-3-yl)-7H-pyrrolo[2,3-d]pyrimidin-4-amine, enantiomer 2]"
295,343,"Cc1nc(N)c2c(-c3ccc(Cl)cc3)cn(C(C)c3cn(-c4ccccc4F)nn3)c2n1 (centres unmarked) [Example 209, 5-(4-Chlorophenyl)-7-{1-[1-(2-fluorophenyl)-1H-1,2,3-triazol-4-yl]ethyl}-2-methyl-7H-pyrrolo[2,3-d]pyrimidin-4-amine]"
131,74.9,"CCC(c1cn(-c2ccc(F)c(F)c2)nn1)n1cc(-c2cnc(C(F)F)nc2)c2c(N)ncnc21 (single isomer, unassigned; enantiomer 2) [Example 313, 5-[2-(Difluoromethyl)pyrimidin-5-yl]-7-{1-[1-(3,4-difluorophenyl)-1H-1,2,3-triazol-4-yl]propyl}-7H-pyrrolo[2,3-d]pyrimidin-4-amine, enantiomer 2]"
338,379,"Nc1ncnc2c1c(-c1ccc3[nH]ccc3c1)cn2Cc1cn(-c2ccccc2F)nn1 [Example 81, 7-{[1-(2-Fluorophenyl)-1H-1,2,3-triazol-4-yl]methyl}-5-(1H-indol-5-yl)-7H-pyrrolo[2,3-d]pyrimidin-4-amine]"
69,69,"CCC(c1cn(-c2ccc(OC)nc2)nn1)n1cc(-c2cnc(C(F)(F)F)nc2)c2c(N)ncnc21 (single isomer, unassigned; enantiomer 1) [Example 309, 7-{1-[1-(6-Methoxypyridin-3-yl)-1H-1,2,3-triazol-4-yl]propyl}-5-[2-(trifluoromethyl)pyrimidin-5-yl]-7H-pyrrolo[2,3-d]pyrimidin-4-amine, enantiomer 1]"
18.9,21.6,"CCC(c1c[nH]c(-c2ccc(F)cc2F)n1)n1cc(-c2cnc(C(F)(F)F)nc2)c2c(N)ncnc21 (single isomer, unassigned; enantiomer 1) [Example 177, 7-{1-[2-(2,4-Difluorophenyl)-2H-imidazol-4-yl]propyl}-5-[2-(trifluoromethyl)pyrimidin-5-yl]-7H-pyrrolo[2,3-d]pyrimidin-4-amine, enantiomer 1]"
133,60.6,"CC(c1cn(-c2ccccc2F)nn1)n1cc(C2CC2)c2c(N)ncnc21 (centres unmarked) [Example 238, 5-Cyclopropyl-7-{1-[1-(2-fluorophenyl)-1H-1,2,3-triazol-4-yl]ethyl}-7H-pyrrolo[2,3-d]pyrimidin-4-amine]"
461,360,"Nc1ncnc2c1c(-c1ncco1)cn2Cc1cn(-c2ccccc2F)nn1 [Example 301, 7-{[1-(2-Fluorophenyl)-1H-1,2,3-triazol-4-yl]methyl}-5-(1,3-oxazol-2-yl)-7H-pyrrolo[2,3-d]pyrimidin-4-amine]"
80.3,80,"CC(c1cnc(-c2ccccc2F)[nH]1)n1cc(-c2ccc(C(F)(F)F)nc2)c2c(N)ncnc21 (centres unmarked) [Example 64, 7-{1-[2-(2-Fluorophenyl)-1H-imidazol-5-yl]ethyl}-5-[6-(trifluoromethyl)pyridin-3-yl]-7H-pyrrolo[2,3-d]pyrimidin-4-amine]"
58.8,25.2,"CC(c1cn(-c2ccccc2F)nn1)n1cc(-c2cnc(C(F)(F)F)nc2)c2c(N)ncnc21 (centres unmarked) [Example 216, 7-{1-[1-(2-Fluorophenyl)-1H-1,2,3-triazol-4-yl]ethyl}-5-[2-(trifluoromethyl)pyrimidin-5-yl]-7H-pyrrolo[2,3-d]pyrimidin-4-amine]"
45,341,"CC(C)(c1cn(-c2ccccc2F)nn1)n1cc(-c2ccc(Cl)cc2)c2c(N)ncnc21 [Example 256, 5-(4-Chlorophenyl)-7-{2-[1-(2-fluorophenyl)-1H-1,2,3-triazol-4-yl]propan-2-yl}-7H-pyrrolo[2,3-d]pyrimidin-4-amine]"
15.5,35.2,"CC(c1cnn(-c2ccc(F)cc2F)c1)n1c(C#N)c(-c2cnc(C(F)(F)F)nc2)c2c(N)ncnc21 (single isomer, unassigned) [Example 8, 4-Amino-7-{1-[1-(2,4-difluorophenyl)-1H-pyrazol-4-yl]ethyl}-5-[2-(trifluoromethyl)pyrimidin-5-yl]-7H-pyrrolo[2,3-d] pyrimidine-6-carbonitrile]"
811,254,"Nc1ncnc2c1c(-c1cnco1)cn2Cc1cn(-c2ccccc2F)nn1 [Example 197, 7-{[1-(2-Fluorophenyl)-1H-1,2,3-triazol-4-yl]methyl}-5-(1,3-oxazol-5-yl)-7H-pyrrolo[2,3-d]pyrimidin-4-amine]"
49,15.6,"Nc1ncnc2c1c(-c1cccnc1OC(F)F)cn2Cc1cn(-c2ccccc2F)nn1 [Example 196, 5-[2-(Difluoromethoxy)pyridin-3-yl]-7-{[1-(2-fluorophenyl)-1H-1,2,3-triazol-4-yl]methyl}-7H-pyrrolo[2,3-d]pyrimidin-4-amine]"
55.4,45.8,"CCC(c1cn(-c2cc(F)ccc2F)nn1)n1cc(-c2cncnc2OC)c2c(N)ncnc21 (single isomer, unassigned; enantiomer 1) [Example 307, (+) 7-{1-[1-(2,5-Difluorophenyl)-1H-1,2,3-triazol-4-yl]propyl}-5-(4-methoxypyrimidin-5-yl)-7H-pyrrolo[2,3-d]pyrimidin-4-amine, enantiomer 1]"
50.5,25,"CCC(c1cn(-c2ccc(F)cc2F)nn1)n1cc(-c2cnc(C(F)F)nc2)c2c(N)ncnc21 (single isomer, unassigned; enantiomer 1) [Example 167, 5-[2-(Difluoromethyl)pyrimidin-5-yl]-7-{1-[1-(2,4-difluorophenyl)-1H-1,2,3-triazol-4-yl]propyl}-7H-pyrrolo[2,3-d]pyrimidin-4-amine, enantiomer 1]"
63,171,"CCC(c1cn(-c2ccccc2F)nn1)n1cc(-c2cc(F)cnc2OC)c2c(N)ncnc21 (single isomer, unassigned; enantiomer 2) [Example 140, (−) 5-(5-Fluoro-2-methoxypyridin-3-yl)-7-{1-[1-(2-fluorophenyl)-1H-1,2,3-triazol-4-yl]propyl}-7H-pyrrolo[2,3-d]pyrimidin-4-amine, enantiomer 2]"
1.19,1.01,"CC(c1cnn(-c2ccccc2F)c1)n1c(C#N)c(-c2cnc(C(F)(F)F)nc2)c2c(N)ncnc21 (single isomer, unassigned) [Example 6, 4-Amino-7-(1-(1-(2-fluorophenyl)-1H-pyrazol-4-yl)ethyl)-5-(2-(trifluoromethyl)pyrimidin-5-yl)-7H-pyrrolo[2,3-d] pyrimidine-6-carbonitrile]"
216,909,"Nc1ncnc2c1c(-c1ccc(Cl)cc1)cn2Cc1nc(-c2ccccc2)c[nH]1 [Example 282, 5-(4-Chlorophenyl)-7-[(4-phenyl-1H-imidazol-2-yl)methyl]-7H-pyrrolo[2,3-d]pyrimidin-4-amine]"
70.3,77.6,"CC(c1cn(-c2ccccc2F)nn1)n1c(C#N)c(-c2cnc(C(F)(F)F)nc2)c2c(N)ncnc21 (single isomer, unassigned) [Example 10, 4-Amino-7-{1-[1-(2-fluorophenyl)-1H-1,2,3-triazol-4-yl]ethyl}-5-[2-(trifluoromethyl)pyrimidin-5-yl]-7H-pyrrolo[2,3-d]pyrimidine-6-carbonitrile]"
80,45.3,"CC(c1cnc(-c2ccccc2F)[nH]1)n1cc(-c2cc[nH]n2)c2c(N)ncnc21 (centres unmarked) [Example 60, 7-{1-[2-(2-Fluorophenyl)-1H-imidazol-5-yl]ethyl}-5-(1H-pyrazol-3-yl)-7H-pyrrolo[2,3-d]pyrimidin-4-amine]"
24.5,538,"CC(c1cc(-c2ccccc2F)no1)n1cc(-c2ccc(Cl)cc2)c2c(N)ncnc21 (single isomer, unassigned; enantiomer 1) [Example 181, (+)-5-(4-Chlorophenyl)-7-{1-[3-(2-fluorophenyl)-1,2-oxazol-5-yl]ethyl}-7H-pyrrolo[2,3-d]pyrimidin-4-amine, enantiomer 1]"

# Reference: patent publication US12612409B2, “Pyrrolopyrimidines as CFTR potentiators” (Cystic Fibrosis Foundation, priority 2016, dated 2026)
